Values of other authors as cited in patent US11369575B2, “PPARα agonist compositions and methods of use” (The Board of Regents of the University of Oklahoma, priority 2019, dated 2022).

Details: free fenofibrate after IVT dosing

- time in which active drug levels disappear: less than 1 week
Structure (SMILES): CC(C)OC(=O)C(C)(C)Oc1ccc(C(=O)c2ccc(Cl)cc2)cc1 [fenofibrate]
